Measured values reported in article PMC4453511 (mBio, 2015).

Biological target: Rv1026/PPX2 (6×His-Rv1026) (Mycobacterium tuberculosis, UniProt P96374)
Sequence (P96374 whole entry): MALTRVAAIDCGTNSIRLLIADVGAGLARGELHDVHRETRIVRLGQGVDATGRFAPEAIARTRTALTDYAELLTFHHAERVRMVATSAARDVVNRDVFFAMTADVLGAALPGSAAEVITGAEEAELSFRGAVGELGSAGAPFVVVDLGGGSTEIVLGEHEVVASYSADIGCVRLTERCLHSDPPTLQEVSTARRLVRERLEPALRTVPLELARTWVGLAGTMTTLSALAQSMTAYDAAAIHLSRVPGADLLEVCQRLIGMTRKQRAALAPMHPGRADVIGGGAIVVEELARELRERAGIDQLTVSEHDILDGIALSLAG

| Compound | DAPI-based poly(P) hydrolysis assay |
| --- | --- |
| Nc1ncnc2c1ncn2[C@@H]1O[C@H](COP(=O)(O)O)[C@@H](O)[C@H]1O [AMP] | accelerated when recombinant protein was incubated with AMP/ADP and GMP/GDP |
| Nc1ncnc2c1ncn2[C@@H]1O[C@H](COP(=O)(O)OP(=O)(O)O)[C@@H](O)[C@H]1O [ADP] | accelerated when recombinant protein was incubated with AMP/ADP and GMP/GDP |
| Nc1nc2c(ncn2[C@@H]2O[C@H](COP(=O)(O)OP(=O)(O)O)[C@@H](O)[C@H]2O)c(=O)[nH]1 [GDP] | accelerated when recombinant protein was incubated with AMP/ADP and GMP/GDP |
| Nc1nc2c(ncn2[C@@H]2O[C@H](COP(=O)(O)O)[C@@H](O)[C@H]2O)c(=O)[nH]1 [GMP] | accelerated when recombinant protein was incubated with AMP/ADP and GMP/GDP |
